Source: ChEMBL document CHEMBL5030563, “Structure-Based Design of Dual-Acting Compounds Targeting Adenosine A2A Receptor and Histone Deacetylase as Novel Tumor Immunotherapeutic Agents” (J Med Chem, 2021)
pIC50, pKi: −log10 of the molar value.

Columns and labels:
[1] = system: MC-38; assay: Antitumour activity against mouse MC38 cells in C57BL/6 mouse assessed as tumour growth inhibition at 60 mg/kg, ip, bid measured after 9 days relative to control; format: functional; settings: MC-38, ip, 216 h, time 9 day, read-out: TGI
[2] = target: T1, Histone deacetylase 8 (Homo sapiens, UniProt Q9BY41); assay: Inhibition of HDAC8 (unknown origin) assessed as release of 7-amino-4-methylcoumarin incubated in room temperature for 15 min measured by Spectra max microtitre plate reader
T1 sequence (Q9BY41 whole entry): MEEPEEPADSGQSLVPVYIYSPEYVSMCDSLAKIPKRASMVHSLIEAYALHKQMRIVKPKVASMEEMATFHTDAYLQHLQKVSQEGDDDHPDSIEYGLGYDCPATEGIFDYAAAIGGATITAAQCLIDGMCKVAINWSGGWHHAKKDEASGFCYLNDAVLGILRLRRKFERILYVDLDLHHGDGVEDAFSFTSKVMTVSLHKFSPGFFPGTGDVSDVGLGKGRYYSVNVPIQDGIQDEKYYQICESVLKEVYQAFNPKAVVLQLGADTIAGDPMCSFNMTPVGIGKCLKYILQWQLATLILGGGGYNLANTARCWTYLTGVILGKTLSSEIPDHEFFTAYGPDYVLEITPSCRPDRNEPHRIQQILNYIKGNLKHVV

[3] = target: Histone deacetylase 2 (Homo sapiens, UniProt Q92769); assay: Inhibition of HDAC2 (unknown origin) assessed as release of 7-amino-4-methylcoumarin incubated in room temperature for 15 min measured by Spectra max microtitre plate reader
Sequence of Histone deacetylase 2 (Q92769 whole entry): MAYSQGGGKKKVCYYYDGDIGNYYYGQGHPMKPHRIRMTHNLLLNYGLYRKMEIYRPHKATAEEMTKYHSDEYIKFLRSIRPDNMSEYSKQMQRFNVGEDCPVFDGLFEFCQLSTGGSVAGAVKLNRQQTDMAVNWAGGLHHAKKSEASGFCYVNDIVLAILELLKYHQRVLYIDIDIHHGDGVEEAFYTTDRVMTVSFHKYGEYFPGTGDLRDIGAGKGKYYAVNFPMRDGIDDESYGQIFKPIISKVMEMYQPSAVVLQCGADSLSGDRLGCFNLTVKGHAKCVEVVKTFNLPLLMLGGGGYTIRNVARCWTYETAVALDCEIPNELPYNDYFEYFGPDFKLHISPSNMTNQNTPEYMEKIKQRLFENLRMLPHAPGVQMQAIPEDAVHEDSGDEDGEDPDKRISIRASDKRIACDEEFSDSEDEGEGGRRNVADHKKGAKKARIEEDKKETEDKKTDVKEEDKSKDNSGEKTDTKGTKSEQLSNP

[4] = target: T2, Adenosine receptor A3 (Homo sapiens, UniProt P0DMS8); assay: Displacement of [3H]DPCPX from human adenosine A3 receptor membrane (unknown origin) measured after 60 mins by scintillation counting analysis; format: cell membranes
T2 sequence (P0DMS8 whole entry): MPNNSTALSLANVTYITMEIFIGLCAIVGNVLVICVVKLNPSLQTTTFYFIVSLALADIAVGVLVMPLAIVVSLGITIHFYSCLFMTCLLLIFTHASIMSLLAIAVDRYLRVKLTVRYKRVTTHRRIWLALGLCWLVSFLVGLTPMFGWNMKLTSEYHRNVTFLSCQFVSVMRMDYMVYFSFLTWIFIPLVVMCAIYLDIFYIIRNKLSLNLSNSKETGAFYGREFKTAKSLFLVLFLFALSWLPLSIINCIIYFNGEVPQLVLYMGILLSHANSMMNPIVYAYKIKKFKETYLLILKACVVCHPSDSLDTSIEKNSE

[5] = target: T3, Adenosine receptor A2b (Homo sapiens, UniProt P29275); assay: Displacement of [3H]DPCPX from human adenosine A2B receptor membrane (unknown origin) measured after 60 mins by scintillation counting analysis; format: cell membranes
T3 sequence (P29275 whole entry): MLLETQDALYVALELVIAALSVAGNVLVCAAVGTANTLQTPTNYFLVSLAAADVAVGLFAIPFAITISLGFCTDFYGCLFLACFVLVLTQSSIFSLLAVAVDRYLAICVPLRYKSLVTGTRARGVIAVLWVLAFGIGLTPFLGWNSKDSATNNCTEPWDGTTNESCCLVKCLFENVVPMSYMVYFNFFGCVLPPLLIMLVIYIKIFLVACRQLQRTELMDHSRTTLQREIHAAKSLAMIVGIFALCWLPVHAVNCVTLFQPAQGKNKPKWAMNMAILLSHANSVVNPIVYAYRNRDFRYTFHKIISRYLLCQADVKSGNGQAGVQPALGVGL

[6] = AUC (0 to […]) in ICR mouse at 5 mg/kg, iv up to 24 hrs by LC-MS/MS analysis; format: ADME, organism-based; set-up: route intravenous, dose 5 mg/kg, time <=24; settings: in vivo
[7] = Initial plasma concentration in ICR mouse at 5 mg/kg, iv up to 24 hrs by LC-MS/MS analysis; format: ADME, organism-based
[8] = Elimination rate constant in ICR mouse at 5 mg/kg, iv up to 24 hrs by LC-MS/MS analysis; format: ADME, organism-based; settings: in vivo
[9] = target: Histone deacetylase 1 (Homo sapiens, UniProt Q13547); assay: Inhibition of HDAC1 (unknown origin) assessed as release of 7-amino-4-methylcoumarin incubated in room temperature for 15 min measured by Spectra max microtitre plate reader
Sequence of Histone deacetylase 1 (Q13547 whole entry): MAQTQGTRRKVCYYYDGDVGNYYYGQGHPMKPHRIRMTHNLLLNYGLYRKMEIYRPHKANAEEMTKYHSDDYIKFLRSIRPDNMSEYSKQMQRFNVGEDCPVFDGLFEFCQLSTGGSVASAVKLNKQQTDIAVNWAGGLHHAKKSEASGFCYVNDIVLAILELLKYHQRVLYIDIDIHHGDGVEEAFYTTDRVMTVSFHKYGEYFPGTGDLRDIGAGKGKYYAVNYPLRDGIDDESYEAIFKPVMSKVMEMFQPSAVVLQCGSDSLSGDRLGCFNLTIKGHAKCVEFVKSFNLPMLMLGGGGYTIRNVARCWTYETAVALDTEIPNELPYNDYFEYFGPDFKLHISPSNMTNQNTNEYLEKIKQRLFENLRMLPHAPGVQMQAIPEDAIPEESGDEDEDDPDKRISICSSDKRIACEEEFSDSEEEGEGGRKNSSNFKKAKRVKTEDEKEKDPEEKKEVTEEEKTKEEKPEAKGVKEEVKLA

[10] = target: T4, Protein deacetylase HDAC6 (Homo sapiens, UniProt Q9UBN7); assay: Inhibition of HDAC6 (unknown origin) assessed as release of 7-amino-4-methylcoumarin incubated in room temperature for 15 min measured by Spectra max microtitre plate reader
T4 sequence (Q9UBN7 whole entry): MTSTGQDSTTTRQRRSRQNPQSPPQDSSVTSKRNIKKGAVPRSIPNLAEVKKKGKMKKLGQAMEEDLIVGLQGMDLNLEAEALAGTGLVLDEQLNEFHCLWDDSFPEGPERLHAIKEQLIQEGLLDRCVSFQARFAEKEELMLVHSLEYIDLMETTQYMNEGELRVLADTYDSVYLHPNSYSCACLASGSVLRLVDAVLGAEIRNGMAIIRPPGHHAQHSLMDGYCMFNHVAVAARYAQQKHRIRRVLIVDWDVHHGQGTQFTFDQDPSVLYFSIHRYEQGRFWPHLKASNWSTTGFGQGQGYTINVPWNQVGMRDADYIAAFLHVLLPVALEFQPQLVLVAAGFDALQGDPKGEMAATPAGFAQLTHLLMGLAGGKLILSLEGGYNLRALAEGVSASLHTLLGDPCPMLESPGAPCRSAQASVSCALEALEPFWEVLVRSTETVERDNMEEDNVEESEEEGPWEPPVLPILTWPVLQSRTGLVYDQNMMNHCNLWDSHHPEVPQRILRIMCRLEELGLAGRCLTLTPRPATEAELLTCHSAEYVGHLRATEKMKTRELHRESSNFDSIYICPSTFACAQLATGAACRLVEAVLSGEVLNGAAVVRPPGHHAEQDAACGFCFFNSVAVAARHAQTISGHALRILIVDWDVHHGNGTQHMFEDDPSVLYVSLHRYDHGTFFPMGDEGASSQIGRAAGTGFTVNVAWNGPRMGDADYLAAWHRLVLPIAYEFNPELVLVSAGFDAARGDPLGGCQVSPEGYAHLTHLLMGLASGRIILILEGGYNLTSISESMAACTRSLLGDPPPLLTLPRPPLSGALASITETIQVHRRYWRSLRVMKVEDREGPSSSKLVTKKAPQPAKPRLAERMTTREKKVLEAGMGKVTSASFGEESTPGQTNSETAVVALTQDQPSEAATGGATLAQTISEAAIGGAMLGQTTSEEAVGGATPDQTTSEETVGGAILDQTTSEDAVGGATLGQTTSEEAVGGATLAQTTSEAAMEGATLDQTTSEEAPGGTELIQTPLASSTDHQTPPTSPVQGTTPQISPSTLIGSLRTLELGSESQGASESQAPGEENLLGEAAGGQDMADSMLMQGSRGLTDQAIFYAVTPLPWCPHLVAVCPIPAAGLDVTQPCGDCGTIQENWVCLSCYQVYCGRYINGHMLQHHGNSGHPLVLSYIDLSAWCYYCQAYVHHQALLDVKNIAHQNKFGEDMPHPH

[11] = Toxicity in C57BL/6 mouse assessed as loss in body weight at 30 to 60 mg/kg, ip, bid measured after 9 days; format: organism-based; settings: in vivo, 216 h, dose 30-60 mg/kg, time 9 day

- pIC50 [2]: < 5.00
- pIC50 [3]: 6.75
- pKi [4]: < 5.00
- pKi [5]: 6.46
- AUC(0-t) [6]: 1460 ng·h/mL
- C0 at 24 h [7]: 4580 ng/mL
- k el at 24 h [8]: 0.000678 s⁻¹
- pIC50 [9]: 7.10
- pIC50 [10]: < 5.00
Compound: Nc1ccccc1NC(=O)c1ccc(CCn2ncc3c2nc(N)n2nc(-c4ccco4)nc32)cc1
- inhibition in vivo at 60 mg/kg [1]: 95.3%
- Activity [11]: Toxic
